Source: PubChem BioAssay (NCI)
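Protocol summary: plate cells (96-well), add compound at 5 concentrations, incubate 48 h, interpolate endpoints linearly. At the TGI there is no net growth.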

Tested on: NCI-H23 lung
Assay: NCI tumour cell line growth inhibition, 48 h

Compound	TGI [µM]
Cc1ccc(-n2[nH]nc(C(N)=O)c2=O)cc1	> 100
COc1ccc2c(c1)CN1C(=N2)CSC1c1cccc(Br)c1 (stereo unspecified)	83.5
O=S(=O)(O)c1ccc(N=Nc2ccc3c(S(=O)(=O)O)cccc3c2O)c2ccccc12	> 100

Tested on: NCI-H460 lung
Assay: NCI tumour cell line growth inhibition, 48 h

Compound	TGI [µM]
CC1(C)[C@@H]2CC[C@]1(C)[C@H](OC(=O)CSC#N)C2	> 100
Cc1ccc(-n2[nH]nc(C(N)=O)c2=O)cc1	> 100
COc1ccc2c(c1)CN1C(=N2)CSC1c1cccc(Br)c1 (stereo unspecified)	> 100

Tested on: NCI-H522 lung
Assay: NCI tumour cell line growth inhibition, 48 h

Compound	TGI [µM]
CC1(C)[C@@H]2CC[C@]1(C)[C@H](OC(=O)CSC#N)C2	> 100
Cc1ccc(-n2[nH]nc(C(N)=O)c2=O)cc1	> 100
COc1ccc2c(c1)CN1C(=N2)CSC1c1cccc(Br)c1 (stereo unspecified)	> 100
O=S(=O)(O)c1ccc(N=Nc2ccc3c(S(=O)(=O)O)cccc3c2O)c2ccccc12	> 100

Tested on: NCI/ADR-RES ovarian
Assay: NCI tumour cell line growth inhibition, 48 h

Compound	TGI [µM]
CC1(C)[C@@H]2CC[C@]1(C)[C@H](OC(=O)CSC#N)C2	> 100
Cc1ccc(-n2[nH]nc(C(N)=O)c2=O)cc1	> 100
COc1ccc2c(c1)CN1C(=N2)CSC1c1cccc(Br)c1 (stereo unspecified)	> 100
O=S(=O)(O)c1ccc(N=Nc2ccc3c(S(=O)(=O)O)cccc3c2O)c2ccccc12	> 100

Tested on: OVCAR-3 ovarian
Assay: NCI tumour cell line growth inhibition, 48 h

Compound	TGI [µM]
CC1(C)[C@@H]2CC[C@]1(C)[C@H](OC(=O)CSC#N)C2	> 100
Cc1ccc(-n2[nH]nc(C(N)=O)c2=O)cc1	> 100
O=S(=O)(O)c1ccc(N=Nc2ccc3c(S(=O)(=O)O)cccc3c2O)c2ccccc12	> 100

Tested on: OVCAR-4 ovarian
Assay: NCI tumour cell line growth inhibition, 48 h

Compound	TGI [µM]
CC1(C)[C@@H]2CC[C@]1(C)[C@H](OC(=O)CSC#N)C2	> 100
Cc1ccc(-n2[nH]nc(C(N)=O)c2=O)cc1	> 100
COc1ccc2c(c1)CN1C(=N2)CSC1c1cccc(Br)c1 (stereo unspecified)	> 100
O=S(=O)(O)c1ccc(N=Nc2ccc3c(S(=O)(=O)O)cccc3c2O)c2ccccc12	> 100

Tested on: OVCAR-5 ovarian
Assay: NCI tumour cell line growth inhibition, 48 h

Compound	TGI [µM]
CC1(C)[C@@H]2CC[C@]1(C)[C@H](OC(=O)CSC#N)C2	> 100
Cc1ccc(-n2[nH]nc(C(N)=O)c2=O)cc1	> 100
COc1ccc2c(c1)CN1C(=N2)CSC1c1cccc(Br)c1 (stereo unspecified)	> 100
O=S(=O)(O)c1ccc(N=Nc2ccc3c(S(=O)(=O)O)cccc3c2O)c2ccccc12	> 100

Tested on: OVCAR-8 ovarian
Assay: NCI tumour cell line growth inhibition, 48 h

Compound	TGI [µM]
CC1(C)[C@@H]2CC[C@]1(C)[C@H](OC(=O)CSC#N)C2	> 100
Cc1ccc(-n2[nH]nc(C(N)=O)c2=O)cc1	> 100
COc1ccc2c(c1)CN1C(=N2)CSC1c1cccc(Br)c1 (stereo unspecified)	> 100
O=S(=O)(O)c1ccc(N=Nc2ccc3c(S(=O)(=O)O)cccc3c2O)c2ccccc12	> 100

Tested on: PC-3 prostate
Assay: NCI tumour cell line growth inhibition, 48 h

Compound	TGI [µM]
CC1(C)[C@@H]2CC[C@]1(C)[C@H](OC(=O)CSC#N)C2	> 100
Cc1ccc(-n2[nH]nc(C(N)=O)c2=O)cc1	> 100
COc1ccc2c(c1)CN1C(=N2)CSC1c1cccc(Br)c1 (stereo unspecified)	> 100
O=S(=O)(O)c1ccc(N=Nc2ccc3c(S(=O)(=O)O)cccc3c2O)c2ccccc12	> 100

Tested on: RPMI-8226 leukemia
Assay: NCI tumour cell line growth inhibition, 48 h

Compound	TGI [µM]
Cc1ccc(-n2[nH]nc(C(N)=O)c2=O)cc1	> 100
COc1ccc2c(c1)CN1C(=N2)CSC1c1cccc(Br)c1 (stereo unspecified)	35.2
O=S(=O)(O)c1ccc(N=Nc2ccc3c(S(=O)(=O)O)cccc3c2O)c2ccccc12	> 100

Tested on: RXF 393 renal
Assay: NCI tumour cell line growth inhibition, 48 h

Compound	TGI [µM]
CC1(C)[C@@H]2CC[C@]1(C)[C@H](OC(=O)CSC#N)C2	> 100
Cc1ccc(-n2[nH]nc(C(N)=O)c2=O)cc1	> 100
COc1ccc2c(c1)CN1C(=N2)CSC1c1cccc(Br)c1 (stereo unspecified)	55.9
O=S(=O)(O)c1ccc(N=Nc2ccc3c(S(=O)(=O)O)cccc3c2O)c2ccccc12	> 100

Tested on: SF-268 CNS
Assay: NCI tumour cell line growth inhibition, 48 h

Compound	TGI [µM]
CC1(C)[C@@H]2CC[C@]1(C)[C@H](OC(=O)CSC#N)C2	> 100
Cc1ccc(-n2[nH]nc(C(N)=O)c2=O)cc1	> 100
COc1ccc2c(c1)CN1C(=N2)CSC1c1cccc(Br)c1 (stereo unspecified)	> 100
O=S(=O)(O)c1ccc(N=Nc2ccc3c(S(=O)(=O)O)cccc3c2O)c2ccccc12	> 100

Tested on: SF-295 CNS
Assay: NCI tumour cell line growth inhibition, 48 h

Compound	TGI [µM]
CC1(C)[C@@H]2CC[C@]1(C)[C@H](OC(=O)CSC#N)C2	> 100
Cc1ccc(-n2[nH]nc(C(N)=O)c2=O)cc1	> 100
COc1ccc2c(c1)CN1C(=N2)CSC1c1cccc(Br)c1 (stereo unspecified)	> 100
O=S(=O)(O)c1ccc(N=Nc2ccc3c(S(=O)(=O)O)cccc3c2O)c2ccccc12	> 100

Tested on: SF-539 CNS
Assay: NCI tumour cell line growth inhibition, 48 h

Compound	TGI [µM]
CC1(C)[C@@H]2CC[C@]1(C)[C@H](OC(=O)CSC#N)C2	67.9
COc1ccc2c(c1)CN1C(=N2)CSC1c1cccc(Br)c1 (stereo unspecified)	> 100

Tested on: SK-MEL-2 melanoma
Assay: NCI tumour cell line growth inhibition, 48 h

Compound	TGI [µM]
CC1(C)[C@@H]2CC[C@]1(C)[C@H](OC(=O)CSC#N)C2	> 100
COc1ccc2c(c1)CN1C(=N2)CSC1c1cccc(Br)c1 (stereo unspecified)	> 100
O=S(=O)(O)c1ccc(N=Nc2ccc3c(S(=O)(=O)O)cccc3c2O)c2ccccc12	> 100

Tested on: SK-MEL-28 melanoma
Assay: NCI tumour cell line growth inhibition, 48 h

Compound	TGI [µM]
CC1(C)[C@@H]2CC[C@]1(C)[C@H](OC(=O)CSC#N)C2	> 100
Cc1ccc(-n2[nH]nc(C(N)=O)c2=O)cc1	> 100
COc1ccc2c(c1)CN1C(=N2)CSC1c1cccc(Br)c1 (stereo unspecified)	> 100
O=S(=O)(O)c1ccc(N=Nc2ccc3c(S(=O)(=O)O)cccc3c2O)c2ccccc12	> 100

Tested on: SK-MEL-5 melanoma
Assay: NCI tumour cell line growth inhibition, 48 h

Compound	TGI [µM]
CC1(C)[C@@H]2CC[C@]1(C)[C@H](OC(=O)CSC#N)C2	> 100
Cc1ccc(-n2[nH]nc(C(N)=O)c2=O)cc1	> 100
COc1ccc2c(c1)CN1C(=N2)CSC1c1cccc(Br)c1 (stereo unspecified)	83.7
O=S(=O)(O)c1ccc(N=Nc2ccc3c(S(=O)(=O)O)cccc3c2O)c2ccccc12	> 100

Tested on: SK-OV-3 ovarian
Assay: NCI tumour cell line growth inhibition, 48 h

Compound	TGI [µM]
CC1(C)[C@@H]2CC[C@]1(C)[C@H](OC(=O)CSC#N)C2	> 100
Cc1ccc(-n2[nH]nc(C(N)=O)c2=O)cc1	> 100
COc1ccc2c(c1)CN1C(=N2)CSC1c1cccc(Br)c1 (stereo unspecified)	> 100
O=S(=O)(O)c1ccc(N=Nc2ccc3c(S(=O)(=O)O)cccc3c2O)c2ccccc12	> 100

Tested on: SN12C renal
Assay: NCI tumour cell line growth inhibition, 48 h

Compound	TGI [µM]
CC1(C)[C@@H]2CC[C@]1(C)[C@H](OC(=O)CSC#N)C2	> 100
Cc1ccc(-n2[nH]nc(C(N)=O)c2=O)cc1	> 100
COc1ccc2c(c1)CN1C(=N2)CSC1c1cccc(Br)c1 (stereo unspecified)	62.6
O=S(=O)(O)c1ccc(N=Nc2ccc3c(S(=O)(=O)O)cccc3c2O)c2ccccc12	> 100

Tested on: SNB-19 CNS
Assay: NCI tumour cell line growth inhibition, 48 h

Compound	TGI [µM]
CC1(C)[C@@H]2CC[C@]1(C)[C@H](OC(=O)CSC#N)C2	> 100
Cc1ccc(-n2[nH]nc(C(N)=O)c2=O)cc1	> 100
COc1ccc2c(c1)CN1C(=N2)CSC1c1cccc(Br)c1 (stereo unspecified)	> 100
O=S(=O)(O)c1ccc(N=Nc2ccc3c(S(=O)(=O)O)cccc3c2O)c2ccccc12	> 100

Tested on: SNB-75 CNS
Assay: NCI tumour cell line growth inhibition, 48 h

Compound	TGI [µM]
CC1(C)[C@@H]2CC[C@]1(C)[C@H](OC(=O)CSC#N)C2	> 100
Cc1ccc(-n2[nH]nc(C(N)=O)c2=O)cc1	> 100
COc1ccc2c(c1)CN1C(=N2)CSC1c1cccc(Br)c1 (stereo unspecified)	64.5
O=S(=O)(O)c1ccc(N=Nc2ccc3c(S(=O)(=O)O)cccc3c2O)c2ccccc12	> 100

Tested on: SR leukemia
Assay: NCI tumour cell line growth inhibition, 48 h

Compound	TGI [µM]
COc1ccc2c(c1)CN1C(=N2)CSC1c1cccc(Br)c1 (stereo unspecified)	> 100

Tested on: SW-620 colon
Assay: NCI tumour cell line growth inhibition, 48 h

Compound	TGI [µM]
CC1(C)[C@@H]2CC[C@]1(C)[C@H](OC(=O)CSC#N)C2	35.4
Cc1ccc(-n2[nH]nc(C(N)=O)c2=O)cc1	> 100
COc1ccc2c(c1)CN1C(=N2)CSC1c1cccc(Br)c1 (stereo unspecified)	> 100
O=S(=O)(O)c1ccc(N=Nc2ccc3c(S(=O)(=O)O)cccc3c2O)c2ccccc12	> 100

Tested on: T-47D breast
Assay: NCI tumour cell line growth inhibition, 48 h

Compound	TGI [µM]
CC1(C)[C@@H]2CC[C@]1(C)[C@H](OC(=O)CSC#N)C2	> 100
Cc1ccc(-n2[nH]nc(C(N)=O)c2=O)cc1	> 100
COc1ccc2c(c1)CN1C(=N2)CSC1c1cccc(Br)c1 (stereo unspecified)	> 100
O=S(=O)(O)c1ccc(N=Nc2ccc3c(S(=O)(=O)O)cccc3c2O)c2ccccc12	> 100

Tested on: TK-10 renal
Assay: NCI tumour cell line growth inhibition, 48 h

Compound	TGI [µM]
CC1(C)[C@@H]2CC[C@]1(C)[C@H](OC(=O)CSC#N)C2	> 100
Cc1ccc(-n2[nH]nc(C(N)=O)c2=O)cc1	> 100
COc1ccc2c(c1)CN1C(=N2)CSC1c1cccc(Br)c1 (stereo unspecified)	> 100
O=S(=O)(O)c1ccc(N=Nc2ccc3c(S(=O)(=O)O)cccc3c2O)c2ccccc12	> 100

Tested on: U251 CNS
Assay: NCI tumour cell line growth inhibition, 48 h

Compound	TGI [µM]
CC1(C)[C@@H]2CC[C@]1(C)[C@H](OC(=O)CSC#N)C2	> 100
Cc1ccc(-n2[nH]nc(C(N)=O)c2=O)cc1	> 100
COc1ccc2c(c1)CN1C(=N2)CSC1c1cccc(Br)c1 (stereo unspecified)	> 100
O=S(=O)(O)c1ccc(N=Nc2ccc3c(S(=O)(=O)O)cccc3c2O)c2ccccc12	> 100

Tested on: UACC-257 melanoma
Assay: NCI tumour cell line growth inhibition, 48 h

Compound	TGI [µM]
CC1(C)[C@@H]2CC[C@]1(C)[C@H](OC(=O)CSC#N)C2	> 100
Cc1ccc(-n2[nH]nc(C(N)=O)c2=O)cc1	> 100
COc1ccc2c(c1)CN1C(=N2)CSC1c1cccc(Br)c1 (stereo unspecified)	> 100
O=S(=O)(O)c1ccc(N=Nc2ccc3c(S(=O)(=O)O)cccc3c2O)c2ccccc12	> 100

Tested on: UACC-62 melanoma
Assay: NCI tumour cell line growth inhibition, 48 h

Compound	TGI [µM]
CC1(C)[C@@H]2CC[C@]1(C)[C@H](OC(=O)CSC#N)C2	> 100
Cc1ccc(-n2[nH]nc(C(N)=O)c2=O)cc1	> 100
COc1ccc2c(c1)CN1C(=N2)CSC1c1cccc(Br)c1 (stereo unspecified)	53.1
O=S(=O)(O)c1ccc(N=Nc2ccc3c(S(=O)(=O)O)cccc3c2O)c2ccccc12	> 100

Tested on: UO-31 renal
Assay: NCI tumour cell line growth inhibition, 48 h

Compound	TGI [µM]
CC1(C)[C@@H]2CC[C@]1(C)[C@H](OC(=O)CSC#N)C2	> 100
Cc1ccc(-n2[nH]nc(C(N)=O)c2=O)cc1	> 100
COc1ccc2c(c1)CN1C(=N2)CSC1c1cccc(Br)c1 (stereo unspecified)	> 100
O=S(=O)(O)c1ccc(N=Nc2ccc3c(S(=O)(=O)O)cccc3c2O)c2ccccc12	> 100
